Source: US20100125081A1, “NEW COMPOUNDS 574” (ASTRAZENECA AB, priority 2008, published 2010)

target: T1, human β-Secretase (Homo sapiens, UniProt P56817); test: TR-FRET assay (β-secretase enzyme, sBACE-Fc); assay type: biochemical; conditions: soluble human β-secretase (AA 1-460) Fc fusion, substrate (Europium)CEVNLDAEFK(Qsy7) 100 nM, pH 4.5; unit inferred, nM taken
T1 construct: soluble part of the human β-Secretase (AA 1-AA 460); Fc domain of IgG1 (C); made in house
Protocol: The β-secretase enzyme used in the TR-FRET is prepared as follows:
The cDNA for the soluble part of the human β-Secretase (AA 1-AA 460) was cloned using the ASP2-Fc10-1-IRES-GFP-neoK mammalian expression vector. The gene was fused to the Fc domain of IgG1 (affinity tag) and stably cloned into HEK 293 cells.
The enzyme (truncated form) was diluted to 6 μg/mL (stock 1.3 mg/mL) and the substrate (Europium)CEVNLDAEFK(Qsy7) to 200 nM (stock 120 μM) in reaction buffer (NaAcetate, chaps, triton x-100, EDTA pH4.5). The robotic systems Biomek FX and Velocity 11 were used for all liquid handling and the enzyme and substrate solutions were kept on ice until they were placed in the robotic system. Enzyme (9 μl) was added to the plate then 1 μl of compound in dimethylsulphoxide was added, mixed and pre-incubated for 10 minutes. Substrate (10 μl) was then added, mixed and the reaction proceeded for 15 minutes at room temperature. The reaction was stopped with the addition of Stop solution (7 μl, NaAcetate, pH 9). The fluorescence of the product was measured on a Victor II plate reader with an excitation wavelength of 340 nm and an emission wavelength of 615 nm. The assay was performed in a Costar 384 well round bottom, low volume, non-binding surface plate (Corning #3676). The final concentration of the enzyme was 2.7 μg/ml; the final concentration of substrate was 100 nM (Km of ˜250 nM). The dimethylsulphoxide control, instead of test compound, defined the 100% activity level and 0% activity was defined by wells lacking enzyme (replaced with reaction buffer).

T1 sequence (P56817 22-460): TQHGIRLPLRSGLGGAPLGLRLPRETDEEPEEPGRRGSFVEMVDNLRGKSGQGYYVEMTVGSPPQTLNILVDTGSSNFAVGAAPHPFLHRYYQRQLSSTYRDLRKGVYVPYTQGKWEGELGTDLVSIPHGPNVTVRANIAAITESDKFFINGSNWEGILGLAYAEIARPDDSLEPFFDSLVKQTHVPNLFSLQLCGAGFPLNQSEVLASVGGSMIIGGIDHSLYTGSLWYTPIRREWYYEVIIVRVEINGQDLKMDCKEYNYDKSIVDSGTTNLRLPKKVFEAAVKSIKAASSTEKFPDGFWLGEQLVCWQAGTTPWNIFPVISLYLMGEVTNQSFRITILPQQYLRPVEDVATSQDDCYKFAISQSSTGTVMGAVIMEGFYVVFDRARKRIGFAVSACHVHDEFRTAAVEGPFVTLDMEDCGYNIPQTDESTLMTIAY

Q: For `COc1ccc(C2(c3cccc(-c4cnccn4)c3)N=C(N)c3ncccc32)cc1C(F)F` (stereo not shown) [Example 23, 5-(3-(difluoromethyl)-4-methoxyphenyl)-5-(3-(pyrazin-2-yl)phenyl)-5H-pyrrolo[3,4-b]pyridin-7-amine], which IC50 is on record?
A: 288 nM

Q: Which IC50 does the source give for `COc1ccnc(-c2cccc(C3(c4ccnc(C(F)(F)F)c4)N=C(N)c4ncccc43)c2)c1` (stereo not shown) [Example 19, 5-(3-(4-methoxypyridin-2-yl)phenyl)-5-(2-(trifluoromethyl)pyridin-4-yl)-5H-pyrrolo[3,4-b]pyridin-7-amine] here?
A: 359 nM

Q: For `NC1=NC(c2cccc(-c3cncnc3)c2)(c2ccc(OC(F)F)c(CCF)c2)c2cccnc21` (stereo not shown) [Example 34, 5-[4-Difluoromethoxy-3-(2-fluoro-ethyl)-phenyl]-5-(3-pyrimidin-5-yl-phenyl)-5H-pyrrolo[3,4-b]pyridin-7-ylamine], which IC50 is on record?
A: 30 nM

Q: `Cc1cc(C2(c3cccc(-c4cncnc4)c3)N=C(N)c3ncccc32)cc(C)n1` (stereo not shown) [Example 4, 5-(2,6-Dimethylpyridin-4-yl)-5-(3-(pyrimidin-5-yl)phenyl)-5H-pyrrolo[3,4-b]pyridin-7-amine] was tested. Which IC50 did it give?
A: 1800 nM

Q: `Cc1cc(C2(c3cccc(-c4cncnc4)c3)N=C(N)c3ncccc32)cc(C)c1OCF` (stereo not shown) [Example 26, 5-(4-(Fluoromethoxy)-3,5-dimethylphenyl)-5-(3-(pyrimidin-5-yl)phenyl)-5H-pyrrolo[3,4-b]pyridin-7-amine] was tested. Which IC50 did it give?
A: 42 nM

Q: For `NC1=NC(c2ccnc(C(F)(F)F)c2)(c2ccc(O)c(-c3ccccc3F)c2)c2cccnc21` (stereo not shown) [Example 38, 5-(7-Amino-5-(2-(trifluoromethyl)pyridin-4-yl)-5H-pyrrolo[3,4-b]pyridin-5-yl)-2′-fluorobiphenyl-2-ol], which IC50 is on record?
A: 658 nM

Q: With `NC1=NC(c2cccc(-c3cncnc3)c2)(c2ccnc(C(F)(F)F)c2)c2cccnc21` (stereo not shown) [Example 2, 5-(3-(pyrimidin-5-yl)phenyl)-5-(2-(trifluoromethyl)pyridin-4-yl)-5H-pyrrolo[3,4-b]pyridin-7-amine] as the molecule, how does the IC50 read?
A: 350 nM

Q: How did the IC50 turn out when `NC1=NC(c2cccc(-c3cncnc3)c2)(c2ccnc(OCCCF)c2)c2cccnc21` (stereo not shown) [Example 28, 5-(2-(3-Fluoropropoxy)pyridin-4-yl)-5-(3-(pyrimidin-5-yl)phenyl)-5H-pyrrolo[3,4-b]pyridin-7-amine] was run?
A: 1560 nM

Q: With `Cc1cc(C2(c3cccc(-c4cncnc4)c3)N=C(N)c3ncccc32)cc(C(F)F)n1` (stereo not shown) [Example 20, 5-(2-(Difluoromethyl)-6-methylpyridin-4-yl)-5-(3-(pyrimidin-5-yl)phenyl)-5H-pyrrolo[3,4-b]pyridin-7-amine] as the molecule, how does the IC50 read?
A: 445 nM

Q: Which IC50 does the source give for `COc1ccc(C2(c3cccc(-c4cncnc4)c3)N=C(N)c3ncccc32)cc1C(F)F` (stereo not shown) [Example 24, 5-(3-(Difluoromethyl)-4-methoxyphenyl)-5-(3-(pyrimidin-5-yl)phenyl)-5H-pyrrolo[3,4-b]pyridin-7-amine] here?
A: 212 nM

Q: For `Cc1cc(C2(c3ccnc(-c4cncnc4)c3)N=C(N)c3ncccc32)cc(C)c1OC(F)F` (stereo not shown) [Example 29, 5-(4-Difluoromethoxy-3,5-dimethyl-phenyl)-5-(2-pyrimidin-5-yl-pyridin-4-yl)-5H-pyrrolo[3,4-b]pyridin-7-ylamine], which IC50 is on record?
A: 106 nM

Q: `NC1=NC(c2cccc(-c3cncnc3)c2)(c2ccnc(C(F)(F)F)c2)c2cccnc21` (single isomer, unassigned) [25, Isomer 1] was tested. Which IC50 did it give?
A: > 31600 nM

Q: How did the IC50 turn out when `Cc1cc(C2(c3cccc(-c4cnccn4)c3)N=C(N)c3ncccc32)cc(C)c1OC(F)F` (stereo not shown) [Example 13, 5-(4-(Difluoromethoxy)-3,5-dimethylphenyl)-5-(3-(pyrazin-2-yl)phenyl)-5H-pyrrolo[3,4-b]pyridin-7-amine] was run?
A: 38 nM
